Measured values published in patent US10472356B2, “Bicyclic ketone sulfonamide compounds” (AMGEN INC., priority 2015, dated 2019).

Assays:
Type in all cases: cell-based
human Nav1.7 [1] = target: T1, human Nav1.7 (Homo sapiens, UniProt Q15858); assay: Nav 1.7 In Vitro PatchXpress (PX) Assay; settings: HEK 293 cells stably transfected with human Nav1.7; PatchXpress whole cell voltage clamp; partially inactivated state (holding potential yielding 20 to 50% inactivation); read-out: hNav1.7 PX IC50
T1 construct: expressed in transfected cells; host or cells: HEK293
T1 sequence (Q15858 whole entry): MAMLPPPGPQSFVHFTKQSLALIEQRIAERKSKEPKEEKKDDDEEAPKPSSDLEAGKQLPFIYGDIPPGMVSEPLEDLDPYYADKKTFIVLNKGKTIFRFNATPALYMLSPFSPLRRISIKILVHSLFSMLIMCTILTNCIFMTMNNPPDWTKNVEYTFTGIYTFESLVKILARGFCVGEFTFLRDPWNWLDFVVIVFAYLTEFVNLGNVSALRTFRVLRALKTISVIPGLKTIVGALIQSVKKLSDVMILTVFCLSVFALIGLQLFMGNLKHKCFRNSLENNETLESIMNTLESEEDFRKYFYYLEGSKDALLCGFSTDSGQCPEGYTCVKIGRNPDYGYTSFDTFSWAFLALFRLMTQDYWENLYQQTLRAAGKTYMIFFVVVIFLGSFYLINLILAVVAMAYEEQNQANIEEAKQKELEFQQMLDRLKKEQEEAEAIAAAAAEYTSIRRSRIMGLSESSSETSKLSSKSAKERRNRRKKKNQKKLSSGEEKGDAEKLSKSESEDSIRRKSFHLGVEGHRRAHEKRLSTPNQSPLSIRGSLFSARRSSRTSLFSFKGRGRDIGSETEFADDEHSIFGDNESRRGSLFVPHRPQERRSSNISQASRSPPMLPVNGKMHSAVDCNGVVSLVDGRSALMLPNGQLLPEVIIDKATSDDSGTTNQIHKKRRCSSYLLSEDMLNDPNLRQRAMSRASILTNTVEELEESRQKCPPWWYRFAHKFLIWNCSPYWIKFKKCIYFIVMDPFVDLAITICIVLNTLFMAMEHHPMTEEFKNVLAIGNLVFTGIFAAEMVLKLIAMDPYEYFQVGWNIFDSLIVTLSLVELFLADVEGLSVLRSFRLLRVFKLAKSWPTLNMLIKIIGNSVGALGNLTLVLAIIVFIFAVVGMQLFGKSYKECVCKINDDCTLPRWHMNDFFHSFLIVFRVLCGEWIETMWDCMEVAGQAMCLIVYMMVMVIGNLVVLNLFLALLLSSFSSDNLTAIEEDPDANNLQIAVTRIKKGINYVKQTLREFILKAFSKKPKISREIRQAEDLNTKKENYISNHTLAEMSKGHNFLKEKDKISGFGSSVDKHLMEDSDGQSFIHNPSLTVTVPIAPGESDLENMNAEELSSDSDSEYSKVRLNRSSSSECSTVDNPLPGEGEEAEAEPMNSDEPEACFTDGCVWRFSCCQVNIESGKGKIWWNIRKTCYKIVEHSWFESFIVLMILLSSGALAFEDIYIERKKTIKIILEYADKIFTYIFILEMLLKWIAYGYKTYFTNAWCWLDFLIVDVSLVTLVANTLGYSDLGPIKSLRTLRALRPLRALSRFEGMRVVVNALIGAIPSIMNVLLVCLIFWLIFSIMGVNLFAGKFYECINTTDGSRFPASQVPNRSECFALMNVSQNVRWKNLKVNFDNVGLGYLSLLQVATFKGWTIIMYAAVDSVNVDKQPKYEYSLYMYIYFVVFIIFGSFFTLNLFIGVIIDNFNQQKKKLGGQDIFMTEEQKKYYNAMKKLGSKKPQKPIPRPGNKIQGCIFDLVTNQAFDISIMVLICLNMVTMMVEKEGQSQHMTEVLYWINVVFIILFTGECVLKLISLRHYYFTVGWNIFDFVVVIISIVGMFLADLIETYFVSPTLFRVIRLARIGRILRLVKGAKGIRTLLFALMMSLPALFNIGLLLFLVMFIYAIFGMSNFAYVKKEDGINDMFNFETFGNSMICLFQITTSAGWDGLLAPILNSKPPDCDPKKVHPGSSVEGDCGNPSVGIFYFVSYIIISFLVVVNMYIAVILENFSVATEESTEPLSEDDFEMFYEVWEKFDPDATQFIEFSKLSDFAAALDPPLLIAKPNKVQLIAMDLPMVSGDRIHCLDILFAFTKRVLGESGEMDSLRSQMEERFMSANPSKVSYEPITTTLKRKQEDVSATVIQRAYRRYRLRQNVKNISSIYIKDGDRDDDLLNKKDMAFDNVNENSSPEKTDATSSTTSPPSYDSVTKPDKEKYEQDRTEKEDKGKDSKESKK
In short: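 Percent inhibition of peak sodium current taken after 3 min exposure to one compound concentration, 3–5 cells each, with IC50 curve fits. Partially inactivated channels (20–50% inactivation at holding potential) in Nav1.7-HEK 293 cells, activated by 20 ms steps to −10 mV every 10 s.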

human Nav1.7 [2] = target: T1, human Nav1.7; assay: Nav 1.7 IWB In Vitro Assay (IonWorks Barracuda); settings: HEK293 cells stably transfected with human Nav 1.7; IonWorks Barracuda population patch-clamp; cells clamped to −20 mV for 4 minutes with compound; 26th pulse; read-out: hNav1.7 IWB IC50
In short: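 IC50 derived from concentration-response of percent block of the 26th-pulse peak inward current, compound vs none. Protocol: stable human Nav 1.7 HEK293 cells on automated population patch clamp, held at −110 mV, 5 Hz train of 150 ms steps to −20 mV, 4 min compound exposure depolarized at −20 mV, 3 s repolarization, train repeated.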

human Nav1.7 [3] = target: T1, human Nav1.7; assay: Nav 1.7 IWQ In Vitro Assay (IonWorks Quattro); settings: HEK293 cells stably transfected with human Nav 1.7; IonWorks Quattro population patch-clamp; 26th pulse to −20 mV, 5 Hz; cells unclamped 5 to 8 minutes with compound; read-out: hNav1.7 IWQ IC50
Procedure: Nav 1.7 or Nav 1.5 IWQ In Vitro Assay
HEK293 cells stably transfected with either human Nav 1.7 or human Nav 1.5 were recorded in population patch-clamp mode with the IonWorks® Quattro automated electrophysiology system (Molecular Devices, LLC, Sunnyvale, Calif.). Cells were voltage clamped to −110 mV for three seconds (Nav 1.7) or half a second (Nav 1.5) and sodium currents were elicited by a train of 26 depolarizations of 150 msec duration to −20 mV (Nav 1.7) or 0 mV (Nav 1.5) at a frequency of 5 Hz. Cells were then left unclamped for a period of 5 to 8 minutes while a single concentration of test compound was added. Following this compound incubation period, cells were then reclamped to −110 mV for three seconds (Nav1.7) or half a second (Nav1.5) to recover unbound channels and put through the same 26 pulse voltage protocol as above. Peak inward current during the 26th pulse to −20 mV (Nav 1.7) or 0 mV (Nav 1.5) in the presence of compound was divided by the peak inward current evoked by the 26th pulse to −20 mV (Nav1.7) or 0 mV (Nav1.5) in the absence of compound to determine percent inhibition. Concentration-response curves of percent.

| IC50 (human Nav1.7 [1]) | IC50 (human Nav1.7 [2]) | IC50 (human Nav1.7 [3]) | Compound |
| --- | --- | --- | --- |
| 161 nM | 30.5 nM | 23.7 nM | COc1cc(-c2ccc(F)c(F)c2)c(F)cc1-n1c2c(ccc1=O)CN(S(=O)(=O)Nc1cccnn1)CC2 (racemic) [Example 32-(Rac), (Rac)-2-oxo-N-3-pyridazinyl-1-(2,3′,4′-trifluoro-5-methoxy-4-biphenylyl)-1,5,7,8-tetrahydro-1,6-naphthyridine-6(2H)-sulfonamide] |
| 53.3 nM | 26.1 nM | 19.6 nM | COc1cc(-c2ccc(Cl)c(C)c2)c(F)cc1-n1c2c(ccc1=O)CN(S(=O)(=O)Nc1cccnn1)CC2 (racemic) [Example 33-(Rac), (Rac)-1-(4′-chloro-2-fluoro-5-methoxy-3′-methyl-4-biphenylyl)-2-oxo-N-3-pyridazinyl-1,5,7,8-tetrahydro-1,6-naphthyridine-6(2H)-sulfonamide] |
| 87.8 nM | 10.2 nM | 16.7 nM | COc1cc(-c2cc(F)cc(Cl)c2)c(F)cc1-n1c2c(ccc1=O)CN(S(=O)(=O)Nc1cccnn1)CC2 (racemic) [Example 38-(Rac), (Rac)-1-(3′-chloro-2,5′-difluoro-5-methoxy-4-biphenylyl)-2-oxo-N-3-pyridazinyl-1,5,7,8-tetrahydro-1,6-naphthyridine-6(2H)-sulfonamide] |
| 35.1 nM | 37.8 nM | 15.2 nM | COc1cc(-c2ccc(Cl)c(C)c2)c(F)cc1-n1c2c(ccc1=O)CN(S(=O)(=O)Nc1nccs1)CC2 (racemic) [Example 39, (Rac)-1-(4′-chloro-2-fluoro-5-methoxy-3′-methyl-4-biphenylyl)-2-oxo-N-1,3-thiazol-2-yl-1,5,7,8-tetrahydro-1,6-naphthyridine-6(2H)-sulfonamide] |
| 5530 nM | 132 nM | 255 nM | COc1cc(-c2cc(OC)c(-n3c4c(ccc3=O)CN(S(=O)(=O)Nc3cccnn3)CC4)cc2F)ccc1Cl (single isomer, unassigned) [Example 2-M, M-1-(4′-chloro-2-fluoro-3′,5-dimethoxy-4-biphenylyl)-2-oxo-N-3-pyridazinyl-1,5,7,8-tetrahydro-1,6-naphthyridine-6(2H)-sulfonamide] |
| 259 nM | 6.6 nM | < 19 nM | COc1cc(-c2cc(OC)c(-n3c4c(ccc3=O)CN(S(=O)(=O)Nc3cccnn3)CC4)cc2F)ccc1Cl (single isomer, unassigned) [Example 2-P, P-1-(4′-chloro-2-fluoro-3′,5-dimethoxy-4-biphenylyl)-2-oxo-N-3-pyridazinyl-1,5,7,8-tetrahydro-1,6-naphthyridine-6(2H)-sulfonamide] |

More lines, now with the values behind:

| Compound | IC50 (human Nav1.7 [1]) | IC50 (human Nav1.7 [2]) | IC50 (human Nav1.7 [3]) |
| --- | --- | --- | --- |
| COc1cc(-c2cc(F)cc(Cl)c2)c(F)cc1-n1c2c(ccc1=O)CN(S(=O)(=O)Nc1ncccn1)CC2 (racemic) [Example 31, (Rac)-1-(3′-chloro-2,5′-difluoro-5-methoxy-4-biphenylyl)-2-oxo-N-2-pyrimidinyl-1,5,7,8-tetrahydro-1,6-naphthyridine-6(2H)-sulfonamide] | 137 nM | 36.2 nM | 28.1 nM |
| COc1cc(C#CC2CCCC2)c(F)cc1-n1c2c(ccc1=O)CN(S(=O)(=O)Nc1ccon1)CC2 (racemic) [Example 34-(Rac), (Rac)-1-(4-(cyclopentylethynyl)-5-fluoro-2-methoxyphenyl)-N-3-isoxazolyl-2-oxo-1,5,7,8-tetrahydro-1,6-naphthyridine-6(2H)-sulfonamide] | 408 nM | 48.5 nM | 88.8 nM |
| COc1cc(-c2ccc(Cl)c(C#N)c2)c(F)cc1-n1c2c(ccc1=O)CN(S(=O)(=O)Nc1ccon1)CC2 (racemic) [Example 35, (Rac)-1-(4′-chloro-3′-cyano-2-fluoro-5-methoxy-4-biphenylyl)-N-3-isoxazolyl-2-oxo-1,5,7,8-tetrahydro-1,6-naphthyridine-6(2H)-sulfonamide] | 177 nM | 18 nM | 4 nM |
| COc1nc(-c2cc(F)cc(Cl)c2)c(F)cc1-n1c2c(ccc1=O)CN(S(=O)(=O)Nc1cccnn1)CC2 (racemic) [Example 37, (Rac)-1-(6-(3-chloro-5-fluorophenyl)-5-fluoro-2-methoxy-3-pyridinyl)-2-oxo-N-3-pyridazinyl-1,5,7,8-tetrahydro-1,6-naphthyridine-6(2H)-sulfonamide] | 1030 nM | 269 nM | 137 nM |
| COc1cc(-c2cc(OC)c(-n3c4c(ccc3=O)CN(S(=O)(=O)Nc3ccon3)CC4)cc2F)ccc1C (racemic) [Example 58-(Rac), (Rac)-1-(2-fluoro-3′,5-dimethoxy-4′-methyl-4-biphenylyl)-N-3-isoxazolyl-2-oxo-1,5,7,8-tetrahydro-1,6-naphthyridine-6(2H)-sulfonamide] | 78 nM | 24.1 nM | 12.3 nM |
| COc1cc(-c2cc(F)cc(F)c2)c(F)cc1-n1c2c(ccc1=O)[C@H](C)N(S(=O)(=O)Nc1ccon1)CC2 (single isomer, unassigned) [Example 3-B-P] | 2080 nM | 197 nM | 224 nM |
| COc1cc(-c2cc(F)cc(Cl)c2)c(F)cc1-n1c2c(ccc1=O)CN(S(=O)(=O)Nc1cc(C)ncn1)CC2 (single isomer, unassigned) [Example 4-P, P-1-(3′-chloro-2,5′-difluoro-5-methoxy-4-biphenylyl)-N-(6-methyl-4-pyrimidinyl)-2-oxo-1,5,7,8-tetrahydro-1,6-naphthyridine-6(2H)-sulfonamide] | 78.4 nM | 31.8 nM | 24.3 nM |
| COc1cc(-c2cc(F)cc(Cl)c2)c(F)cc1-n1c2c(ccc1=O)CN(S(=O)(=O)Nc1ncns1)CC2 (single isomer, unassigned) [Example 5-P, P-1-(3′-chloro-2,5′-difluoro-5-methoxy-4-biphenylyl)-2-oxo-N-1,2,4-thiadiazol-5-yl-1,5,7,8-tetrahydro-1,6-naphthyridine-6(2H)-sulfonamide] | 12.3 nM | 1.5 nM | 1.6 nM |
| COc1cc(-c2cc(F)cc(Cl)c2)c(F)cc1-n1c2c(ccc1=O)CN(S(=O)(=O)Nc1ccnc(C)n1)CC2 (single isomer, unassigned) [Example 6-P, P-1-(3′-chloro-2,5′-difluoro-5-methoxy-4-biphenylyl)-N-(2-methyl-4-pyrimidinyl)-2-oxo-1,5,7,8-tetrahydro-1,6-naphthyridine-6(2H)-sulfonamide] | 269 nM | 64.8 nM | 25.4 nM |
| COc1cc(-c2cc(F)cc(Cl)c2)ccc1-n1c2c(ccc1=O)CN(S(=O)(=O)Nc1ccon1)CC2 (single isomer, unassigned) [Example 7-P, P-1-(3′-chloro-5′-fluoro-3-methoxy-4-biphenylyl)-N-3-isoxazolyl-2-oxo-1,5,7,8-tetrahydro-1,6-naphthyridine-6(2H)-sulfonamide] | 76.3 nM | 14.3 nM | 7.8 nM |
| COc1cc(-c2cc(Cl)ccc2C)c(F)cc1-n1c2c(ccc1=O)CN(S(=O)(=O)Nc1ccon1)CC2 (single isomer, unassigned) [Example 9-P, P-1-(5′-chloro-2-fluoro-5-methoxy-2′-methyl-4-biphenylyl)-N-3-isoxazolyl-2-oxo-1,5,7,8-tetrahydro-1,6-naphthyridine-6(2H)-sulfonamide] | 18 nM | 3.1 nM | 2.1 nM |
